The NIST ThermoML archive (doi:10.1021/acs.jced.7b00267)

Conditions: 101.35 kPa, Liquid; for viscosity: Falling or rolling sphere viscometry; for mass density: Vibrating tube method

CCO [ethanol]
Conditions	mass density [kg/m3]	viscosity [mPa·s]
293.15 K	789.5	1.194
298.15 K	785.2	1.085
303.15 K	780.8	0.9897
308.15 K	776.5	0.9036
313.15 K	772.1	0.8277
318.15 K	767.7	0.759
323.15 K	763.2	0.6978
328.15 K	758.7	0.6434
333.15 K	754.1	0.5942
